Counter-ions that a name gives are not always drawn.
target: recombinant human HPK1 (Homo sapiens (Human), UniProt Q92918); experiment: HPK1 kinase assay (Promega ADP-Glo kinase assay); assay type: biochemical; settings: In vitro activity against HPK1, 5 ng HPK1, MBP substrate, ATP 25 μM, 30° C. 40 minutes
Summary of the method: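 IC50 was derived from percent inhibition across a range of compound concentrations. Recombinant human HPK1 (5 ng) phosphorylated MBP for 40 min at 30 °C in Tris buffer pH 7.5 with 20 mM MgCl2, with ATP added as a 25 µM solution and 0.5% DMSO. ADP formed was read by ADP-Glo luminescence.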

recombinant human HPK1, sequence (Q92918 whole entry): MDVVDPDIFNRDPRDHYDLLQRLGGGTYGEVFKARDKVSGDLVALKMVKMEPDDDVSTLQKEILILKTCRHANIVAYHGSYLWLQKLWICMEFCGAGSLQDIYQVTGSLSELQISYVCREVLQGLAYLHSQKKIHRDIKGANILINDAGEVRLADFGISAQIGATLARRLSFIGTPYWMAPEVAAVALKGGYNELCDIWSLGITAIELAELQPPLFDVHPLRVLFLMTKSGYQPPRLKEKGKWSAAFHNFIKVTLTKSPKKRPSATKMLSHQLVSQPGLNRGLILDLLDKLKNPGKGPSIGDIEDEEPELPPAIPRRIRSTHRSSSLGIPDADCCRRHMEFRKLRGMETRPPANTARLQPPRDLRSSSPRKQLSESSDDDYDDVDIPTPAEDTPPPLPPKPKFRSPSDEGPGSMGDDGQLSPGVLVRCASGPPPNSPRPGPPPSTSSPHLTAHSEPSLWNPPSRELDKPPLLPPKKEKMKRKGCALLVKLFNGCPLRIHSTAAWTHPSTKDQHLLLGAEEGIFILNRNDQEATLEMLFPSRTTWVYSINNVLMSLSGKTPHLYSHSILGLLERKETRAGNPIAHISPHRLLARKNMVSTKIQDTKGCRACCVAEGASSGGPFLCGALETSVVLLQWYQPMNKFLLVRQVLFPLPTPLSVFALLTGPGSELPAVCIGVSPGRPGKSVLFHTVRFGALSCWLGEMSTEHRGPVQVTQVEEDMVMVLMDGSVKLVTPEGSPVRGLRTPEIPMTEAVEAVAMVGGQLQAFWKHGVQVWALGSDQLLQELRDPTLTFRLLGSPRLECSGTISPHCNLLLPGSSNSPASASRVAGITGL

SMILES | IC50 [nM]
CC(CN)c1c(F)c(C(F)(F)F)c(-c2cn3cc(NC(=O)[C@@H]4C[C@@H]4F)nc3cn2)c2cn[nH]c12 (stereo partly drawn) [Example 98, (1S,2S)-N-(6-(7-(1-aminopropan-2-yl)-6-fluoro-5-(trifluoromethyl)-1H-indazol-4-yl)imidazo[1,2-a]pyrazin-2-yl)-2-fluorocyclopropane-1-carboxamide formate] | < 100
CC(=O)NCC(C)c1c(F)c(C(F)(F)F)c(-c2cn3cc(NC(=O)[C@@H]4C[C@@H]4F)nc3cn2)c2cn[nH]c12 (stereo partly drawn) [Example 99, (1S,2S)-N-(6-(7-(1-acetamidopropan-2-yl)-6-fluoro-5-(trifluoromethyl)-1H-indazol-4-yl)imidazo[1,2-a]pyrazin-2-yl)-2-fluorocyclopropane-1-carboxamide] | < 100
CSCC(=O)Nc1cn2cc(-c3c(Cl)c(F)c(NC(C)C)c4[nH]ncc34)ncc2n1 [Example 100, N-(6-(5-chloro-6-fluoro-7-(isopropylamino)-1H-indazol-4-yl)imidazo[1,2-a]pyrazin-2-yl)-2-(methylthio)acetamide] | < 100
CC(C)Nc1c(F)c(Cl)c(-c2cn3cc(NC4CCOC4)nc3cn2)c2cn[nH]c12 (stereo not shown) [Example 101, 6-(5-chloro-6-fluoro-7-(isopropylamino)-1H-indazol-4-yl)-N-(tetrahydrofuran-3-yl)imidazo[1,2-a]pyrazin-2-amine] | 101 to 500
CC(=O)N(C)c1cn2cc(-c3c(Cl)c(F)c(NC(C)C)c4[nH]ncc34)ncc2n1 [Example 102, N-(6-(5-chloro-6-fluoro-7-(isopropylamino)-1H-indazol-4-yl)imidazo[1,2-a]pyrazin-2-yl)-N-methylacetamide] | 501 to 1000
CC(C)Nc1c(F)c(Cl)c(-c2cn3cc(NC(=O)CN(C)C)nc3cn2)c2cn[nH]c12 [Example 103, N-(6-(5-chloro-6-fluoro-7-(isopropylamino)-1H-indazol-4-yl)imidazo[1,2-a]pyrazin-2-yl)-2-(dimethylamino)acetamide] | < 100
CC(C)Nc1c(F)c(C(F)(F)F)c(-c2cn3cc(NC(=O)[C@@H]4C[C@@H]4CO)nc3cn2)c2cn[nH]c12 [Example 104, (1R,2S)-N-(6-(6-fluoro-7-(isopropylamino)-5-(trifluoromethyl)-1H-indazol-4-yl)imidazo[1,2-a]pyrazin-2-yl)-2-(hydroxymethyl)cyclopropane-1-carboxamide] | < 100
CSC(C)C(=O)Nc1cn2cc(-c3c(Cl)c(F)c(NC(C)C)c4[nH]ncc34)ncc2n1 (stereo not shown) [Example 105, N-(6-(5-chloro-6-fluoro-7-(isopropylamino)-1H-indazol-4-yl)imidazo[1,2-a]pyrazin-2-yl)-2-(methylthio)propanamide] | 101 to 500
CC(C)Nc1c(F)c(Cl)c(-c2cn3cc(NC(=O)[C@@H](C)N(C)C)nc3cn2)c2cn[nH]c12 [Example 106, (R)-N-(6-(5-chloro-6-fluoro-7-(isopropylamino)-1H-indazol-4-yl)imidazo[1,2-a]pyrazin-2-yl)-2-(dimethylamino)propanamide] | 501 to 1000
Cc1c(F)c(C(NC(=O)C(F)(F)F)C2CC2)c2[nH]ncc2c1-c1cn2cc(NC(=O)[C@@H]3C[C@@H]3F)nc2cn1 (stereo partly drawn) [Example 107, (1S,2S)-N-(6-(7-(cyclopropyl(2,2,2-trifluoroacetamido)methyl)-6-fluoro-5-methyl-1H-indazol-4-yl)imidazo[1,2-a]pyrazin-2-yl)-2-fluorocyclopropane-1-carboxamide] | < 100
CC(C)Nc1c(F)c(Cl)c(-c2cn3cc(NC(=O)C4CCN4)nc3cn2)c2cn[nH]c12 (stereo not shown) [Example 108, N-(6-(5-chloro-6-fluoro-7-(isopropylamino)-1H-indazol-4-yl)imidazo[1,2-a]pyrazin-2-yl)azetidine-2-carboxamide] | 101 to 500
COCC(=O)Nc1cn2cc(-c3c(Cl)c(F)c(NC(C)C)c4[nH]ncc34)ncc2n1 [Example 109, N-(6-(5-chloro-6-fluoro-7-(isopropylamino)-1H-indazol-4-yl)imidazo[1,2-a]pyrazin-2-yl)-2-methoxyacetamide] | < 100
CCCC(=O)Nc1cn2cc(-c3c(Cl)c(F)c(NC(C)C)c4[nH]ncc34)ncc2n1 [Example 110, N-(6-(5-chloro-6-fluoro-7-(isopropylamino)-1H-indazol-4-yl)imidazo[1,2-a]pyrazin-2-yl)butyramide] | < 100

Now from value to compound:

IC50 [nM] | SMILES
101 to 500 | CC(C)Nc1c(F)c(Cl)c(-c2cn3cc(NC(=O)C4CCCO4)nc3cn2)c2cn[nH]c12 (stereo not shown) [Example 111, N-(6-(5-chloro-6-fluoro-7-(isopropylamino)-1H-indazol-4-yl)imidazo[1,2-a]pyrazin-2-yl)tetrahydrofuran-2-carboxamide]
< 100 | CC(C)Nc1c(F)c(Cl)c(-c2cn3cc(NC=O)nc3cn2)c2cn[nH]c12 [Example 112, N-(6-(5-chloro-6-fluoro-7-(isopropylamino)-1H-indazol-4-yl)imidazo[1,2-a]pyrazin-2-yl)formamide]
< 100 | COC(=O)Nc1cn2cc(-c3c(Cl)c(F)c(NC(C)C)c4[nH]ncc34)ncc2n1 [Example 113, methyl (6-(5-chloro-6-fluoro-7-(isopropylamino)-1H-indazol-4-yl)imidazo[1,2-a]pyrazin-2-yl)carbamate]
< 100 | CCOC(=O)Nc1cn2cc(-c3c(Cl)c(F)c(NC(C)C)c4[nH]ncc34)ncc2n1 [Example 114, ethyl (6-(5-chloro-6-fluoro-7-(isopropylamino)-1H-indazol-4-yl)imidazo[1,2-a]pyrazin-2-yl)carbamate]
< 100 | O=CNC(c1c(F)c(C(F)(F)F)c(-c2cn3cc(NC(=O)[C@@H]4C[C@@H]4F)nc3cn2)c2cn[nH]c12)C1CC1 (stereo partly drawn) [Example 115, (1S,2S)-N-(6-(7-(cyclopropyl(formamido)methyl)-6-fluoro-5-(trifluoromethyl)-1H-indazol-4-yl)imidazo[1,2-a]pyrazin-2-yl)-2-fluorocyclopropane-1-carboxamide]
< 100 | CC(C)Nc1c(F)c(Cl)c(-c2cn3cc(NC(=O)CC4COC4)nc3cn2)c2cn[nH]c12 [Example 116, N-(6-(5-chloro-6-fluoro-7-(isopropylamino)-1H-indazol-4-yl)imidazo[1,2-a]pyrazin-2-yl)-2-(oxetan-3-yl)acetamide]
< 100 | CCCCC(=O)Nc1cn2cc(-c3c(Cl)c(F)c(NC(C)C)c4[nH]ncc34)ncc2n1 [Example 117, N-(6-(5-chloro-6-fluoro-7-(isopropylamino)-1H-indazol-4-yl)imidazo[1,2-a]pyrazin-2-yl)pentanamide]
< 100 | O=C(Nc1cn2cc(-c3c(C(F)(F)F)c(F)c(C(O)C4CC4)c4[nH]ncc34)ncc2n1)[C@@H]1C[C@@H]1CO (stereo partly drawn) [Example 118, (1R,2S)-N-(6-(7-(cyclopropyl(hydroxy)methyl)-6-fluoro-5-(trifluoromethyl)-1H-indazol-4-yl)imidazo[1,2-a]pyrazin-2-yl)-2-(hydroxymethyl)cyclopropane-1-carboxamide]
< 100 | CCNC(=O)Nc1cn2cc(-c3c(Cl)c(F)c(NC(C)C)c4[nH]ncc34)ncc2n1 [Example 119, 1-(6-(5-chloro-6-fluoro-7-(isopropylamino)-1H-indazol-4-yl)imidazo[1,2-a]pyrazin-2-yl)-3-ethylurea]
< 100 | CC(C)Nc1c(F)c(Cl)c(-c2cn3cc(NC(=O)N4CCNCC4)nc3cn2)c2cn[nH]c12 [Example 120, N-(6-(5-chloro-6-fluoro-7-(isopropylamino)-1H-indazol-4-yl)imidazo[1,2-a]pyrazin-2-yl)piperazine-1-carboxamide]
501 to 1000 | CNC(=O)Nc1cn2cc(-c3c(Cl)c(F)c(NC(C)C)c4[nH]ncc34)ncc2n1 [Example 121, 1-(6-(5-chloro-6-fluoro-7-(isopropylamino)-1H-indazol-4-yl)imidazo[1,2-a]pyrazin-2-yl)-3-methylurea]
< 100 | CC(C)Nc1c(F)c(Cl)c(-c2cn3cc(NC(=O)C(F)F)nc3cn2)c2cn[nH]c12 [Example 122, N-(6-(5-chloro-6-fluoro-7-(isopropylamino)-1H-indazol-4-yl)imidazo[1,2-a]pyrazin-2-yl)-2,2-difluoroacetamide]
< 100 | CC(C)Nc1c(F)c(Cl)c(-c2cn3cc(NC(=O)C4CCN(C)CC4)nc3cn2)c2cn[nH]c12 [Example 123, N-(6-(5-chloro-6-fluoro-7-(isopropylamino)-1H-indazol-4-yl)imidazo[1,2-a]pyrazin-2-yl)-1-methylpiperidine-4-carboxamide]
< 100 | CC(C)Nc1c(F)c(Cl)c(-c2cn3cc(NC(=O)N4CCCC4)nc3cn2)c2cn[nH]c12 [Example 124, N-(6-(5-chloro-6-fluoro-7-(isopropylamino)-1H-indazol-4-yl)imidazo[1,2-a]pyrazin-2-yl)pyrrolidine-1-carboxamide]
< 100 | CC(C)Nc1c(F)c(Cl)c(-c2cn3cc(NC(=O)C4CCOC4)nc3cn2)c2cn[nH]c12 (stereo not shown) [Example 125, N-(6-(5-chloro-6-fluoro-7-(isopropylamino)-1H-indazol-4-yl)imidazo[1,2-a]pyrazin-2-yl)tetrahydrofuran-3-carboxamide]
< 100 | CC(C)Nc1c(F)c(Cl)c(-c2cn3cc(NC(=O)OC4CCC4)nc3cn2)c2cn[nH]c12 [Example 126, cyclobutyl (6-(5-chloro-6-fluoro-7-(isopropylamino)-1H-indazol-4-yl)imidazo[1,2-a]pyrazin-2-yl)carbamate formate]
< 100 | COc1c(F)c(C(O)C2CC2)c2[nH]ncc2c1-c1cn2cc(NC(=O)[C@@H]3C[C@@H]3F)nc2cn1 (stereo partly drawn) [Example 127, (1S,2S)-N-(6-(7-(cyclopropyl(hydroxy)methyl)-6-fluoro-5-methoxy-1H-indazol-4-yl)imidazo[1,2-a]pyrazin-2-yl)-2-fluorocyclopropane-1-carboxamide]
< 100 | COc1c(F)c(C(C)O)c2[nH]ncc2c1-c1cn2cc(NC(=O)[C@@H]3C[C@@H]3F)nc2cn1 (stereo partly drawn) [Example 128, (1S,2S)-2-fluoro-N-(6-(6-fluoro-7-(1-hydroxyethyl)-5-methoxy-1H-indazol-4-yl)imidazo[1,2-a]pyrazin-2-yl)cyclopropane-1-carboxamide]
